# Experiments:
# Lewis lung tumor cell = settings: female mice implanted with Lewis lung tumor cell; Bernacki, page 93; cited from earlier work
# [1] = target: hexosaminidase from porcine placenta; experiment: Inhibition of hexosaminidase activity, 4-nitrophenyl-N-acetyl-β-glucosaminide substrate, 96-well microplate (porcine placenta enzyme); type: biochemical; settings: pH 4.5, 10 min preincubation at room temperature, substrate 30 min at 37° C., read at 405 nm
# Experimental: (§1) In a preliminary screen, test compounds are studied over a range of concentrations from 0.1 to 100 μg/ml. together with a control sample. Specifically, the test compound is added to individual wells and made up to a total volume of 100 μl. To each well is added 25 μl of 1M sodium citrate buffer pH 4.5 and 25 μl of enzyme (1 mμ) in 10 mM sodium citrate at pH 4.5. The material is mixed and incubated at room temperature for 10 minutes. Then 50 μl of 10 mM substrate (4-nitrophenyl-N-acetyl-8-glucosaminide, Sigma # N-91376) is added and the mixture is incubated at 37° C. for 30 minutes. The reaction is then killed by adding 100 μl of 2% sodium carbonate and the yellow color due to release of 4-nitrophenol is read at 405 nm in an Elisa reader. The results obtained in this preliminary screen are then examined and, if inhibition has taken place, the procedure is repeated using several concentrations over a narrower range to provide for a more precise determination of the IC50.
# [2] = target: hexosaminidase from human placenta; experiment: Inhibition of hexosaminidase activity, 4-nitrophenyl-N-acetyl-β-glucosaminide substrate, 96-well microplate (human placenta enzyme); type: biochemical; settings: pH 4.5, 10 min preincubation at room temperature, substrate 30 min at 37° C., read at 405 nm
# Experimental: as §1
SMILES,increase of life span (Lewis lung tumor cell),IC50 value for the inhibition of hexosaminidase from porcine placenta [1],IC50 value for the inhibition of hexosaminidase from human placenta [2]
CC(=O)NC1=CO[C@H](CO)[C@@H](O)[C@@H]1O [2-acetamidoglucal],63%,–,–
"CC(=O)N[C@H]1CN2CC[C@H](O)[C@@H]2[C@@H](O)[C@@H]1O [[1S-(1α,6β,7α,8β,8aβ)]-6-acetamidooctahydro-1,7,8-indolizinetriol]",–,0.1 µg/mL,0.1 µg/mL

# From patent publication US5079254A, “Derivatives of 6-aminooctahydroindolizinetriol” (Merrell Dow Pharmaceuticals Inc., priority 1990, dated 1992)
